The text below walks through data of patent US20060094693A1, “Methods and compositions for treating glucose-associated conditions, metabolic syndrome, dyslipidemias and other conditions” (Point Therapeutics, Inc., priority 2004, published 2006).

In data set [1] the test system is Lewis rats. Briefly: in vivo. Conditions: Lewis rats, single dose, 5 days observation.
Description: Serum DPP-IV inhibition and observation of acute toxicity of amino boronic dipeptides in Lewis rats. […] After observations were completed or at the onset of a moribund state, humane euthanasia was performed by asphyxiation in 100% CO2.
The target in data set [2] is T1, soluble recombinant human DPP-IV (Homo sapiens, UniProt P27487).
T1 construct: immunoglobulin kappa light chain secretion signal (pSecTag2-B) (N, cleaved yes); made in house; host or cells: 293T cells, transient transfection; unpurified culture supernatant used
T1 sequence (P27487 39-766 limits assumed): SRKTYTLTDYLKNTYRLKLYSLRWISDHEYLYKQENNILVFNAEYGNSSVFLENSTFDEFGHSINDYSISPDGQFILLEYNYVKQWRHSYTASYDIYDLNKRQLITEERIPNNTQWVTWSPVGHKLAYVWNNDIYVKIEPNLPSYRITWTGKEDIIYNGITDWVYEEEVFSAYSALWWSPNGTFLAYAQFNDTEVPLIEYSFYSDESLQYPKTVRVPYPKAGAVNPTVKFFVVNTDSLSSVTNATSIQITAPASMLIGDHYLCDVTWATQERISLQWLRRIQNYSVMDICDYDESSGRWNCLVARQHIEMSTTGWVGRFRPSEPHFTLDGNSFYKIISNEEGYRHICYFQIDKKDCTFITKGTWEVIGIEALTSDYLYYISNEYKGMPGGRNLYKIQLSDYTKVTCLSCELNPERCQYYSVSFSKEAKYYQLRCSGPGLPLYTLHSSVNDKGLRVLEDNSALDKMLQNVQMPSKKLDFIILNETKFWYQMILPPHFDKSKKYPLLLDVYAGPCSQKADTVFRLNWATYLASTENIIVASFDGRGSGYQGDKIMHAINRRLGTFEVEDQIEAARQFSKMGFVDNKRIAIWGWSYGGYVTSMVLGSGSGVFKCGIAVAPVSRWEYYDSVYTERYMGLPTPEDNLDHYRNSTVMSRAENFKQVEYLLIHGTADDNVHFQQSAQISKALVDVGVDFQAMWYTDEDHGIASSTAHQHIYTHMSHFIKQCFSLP
Briefly: In vitro assay of enzymatic activity of recombinant soluble DPP-IV and inhibition by amino boronic dipeptides. It counts as biochemical. Conditions: assayed 3 minutes, 78 minutes and 16 hours after addition of Ala-Pro-AFC. An excerpt:
Production of soluble recombinant human DPP-IV. Based on information on the N-terminus of serum DPP-IV (15), a truncated DPP-IV was engineered in which a signal/leader sequence was joined to the residue in DPP-IV corresponding to the N-terminus of serum DPP-IV to allow secretion. The cDNA encoding the desired truncated human DPP-IV dimer enzyme was engineered into the mammalian secretion vector pSecTag2 (Cat# V900-20, InVitrogen Corporation). The vector, available in A, B or C versions, representing three possible phases for gene fusion, contained an immunoglobulin-kappa light chain secretion signal followed by a selection of restriction sites for gene insertion. The fusion required engineering a restriction site upstream of the chosen fusion amino acid in the 5′ end of the DPP-IV dimer enzyme nucleic acid in phase with the chosen restriction site (Sfi I) in the vector secretion sequence. The chosen fusion amino acid in the 5′ end of the DPP-IV (Ser39) was 3′ of the trans-membrane anchoring domain. The pSecTag2 version B and its Sfi I restriction site was chosen for the fusion because it minimizes the additional N-terminal, vector-encoded residues in the mature secreted protein.
Construction of the fusion was as follows. First, total RNA was isolated from the Caco-2 colorectal carcinoma cell line (ATCC HTB-37) by standard Trizol/phenol/chloroform methodology. The purified RNA (approx. 2.5 μg in a 20 μl reaction) was used to make cDNA using oligo-dT primer and a commercial reverse transcription (RT) kit (InVitrogen). […] The following thermal cycler program was used: 94° C. for 45 sec. initial denaturation, then 30 cycles of 94° C., 10 sec.; 48° C., 6 sec.; 60° C., 4 min; followed by 5-min. extension at 72° C. after cycling.
DNA from the plasmid encoding DPP-IV dimer enzyme was prepared on an approximately 400 μg scale from overnight 30 ml cultures in Luria broth with 100 μg ampicillin per ml using a commercial kit (Qiagen Maxiprep Kit).
In vitro assay of enzmatic activity ofrecombinant soluble DPP-IV and inhibition by amino boronic dipeptides. The assay reaction mixture consisted of 135 μl 50 mM HEPES/Na buffer pH 7.6, 140 mM NaCl, 10-15 gl enzyme-containing culture supernatant, dipeptide substrate Ala-Pro-(7-amino-4-trifluoromethyl coumarin) (Ala-Pro-AFC; Enzyme System Products, Dublin, Calif.) at typically 0.1-1 mM added from a 100 or 400 mM stock in dimethyl formamide. The reaction mixture was incubated at room temperature, and production of the fluorescent AFC product was measured in a fluorometer (excitation, 400 nm; emission 505 nm), either by continuous monitoring or after termination with a one to one-tenth volume of 1 -M sodium acetate, pH 4.5. Fluorometric reading were made with a Molecular Dynamics Spectra Max GeminiXS capable of reading 96-well microtiter plates. The inhibitory activity of amino boronic dipeptides was investigated by preincubation of assay reaction mixtures with varying concentrations of each compound for 10 minutes before the addition of the substrate Ala-Pro-AFC.

The subject of data set [3] is human bone marrow stromal cells. Briefly: G-CSF supernatant levels in human bone marrow stromal cell cultures. It counts as cell-based. Particulars: 1 to 10^4 nM, 24 hours. On the procedure: Human bone marrow stromal cell cultures. Samples of normal human bone marrow were purchased from Cambrex Bioproducts (Walkersville, Md.) and mononuclear cells were purified over Ficoll-Hypaque (Nycomed, Oslo, Norway). Human stromal layers were established by seeding 4×10^7 mononuclear cells into T75 flasks (Corning) containing 20 ml MyeloCult medium (Stem Cell Technologies, Vancouver, BC) supplemented with 10^−6 M hydrocortisone (Sigma) and incubation at 37° C. in 100% humidified 5% CO2 in air. After one week, half the medium was exchanged, and the cultures incubated for approximately one week more, after which time, a semi-confluent cell layer was formed. Stromal cells were harvested by trypsinization using standard technique and 10^5 cells/well were seeded in multi-well plates in 1 ml of fully supplemented DMEM (InVitrogen, Carlsbad, Calif.). […] Multiwell cultures without the addition of amino boronic dipeptides served as controls. […] Supernatant concentrations of human G-CSF were determined by Quantikine enzyme-linked immunosorbent assay (ELISA; R&D Systems, Minneapolis, Minn.) according to the manufacturer's instructions. […] The effect of each amino boronic dipeptide on the level of supernatant G-CSF was determined by calculating a stimulation index (SI): SI=(mean G-CSF concentration in culture with amino boronic dipeptide)/(mean G-CSF concentration in control culture).

Data set [4] has as its system serum KC/CXCL1. Briefly: Serum KC/CXCL1 levels in vivo (ELISA). On the set-up: species or system BALB/c mice. Conditions: 0.2-200 μg/mouse oral, 2 hours. Here is the method:
Assay ofserum DPP-IV inhibition and KC/CXCL1 levels in vivo. […] Each mouse received a single administration of each amino boronic dipeptide or saline, and blood samples were withdrawn from mice 2 hours later.
Serum concentration of mouse KC/CXCL1 was determined by Quantikine enzyme-linked immunosorbent assay (ELISA; R&D Systems, Minneapolis, Minn.) according to the manufacturer's instructions. ELISA was performed in duplicate for each sample.

Data set [5] concerns Zucker Diabetic Fatty (ZDF) rats. Briefly: 6 week glycemic control study in Zucker Diabetic Fatty rats. Conditions: Metformin group, day 14-15. The class given is in vivo. Here is the method: The design of the 6 week long study is depicted in FIG. 8. 60 male Zucker Diabetic Fatty (ZDF) rats (5 weeks of age) were obtained from Charles River Labs. The animals are housed singly and allowed to acclimatize for 1 week before the initiation of the study. 24-hour food intake and body weight was measured gravimetrically twice weekly from the start of housing. HbA1C levels were measured at Day 0, 7, 14, 28 and 46. OGTT was administered on Day 2-3, 15 minutes after the administration of the drugs. OGTT was administered again at the end of the study but in this case, drugs were given 15 hours prior to the OGTT. The 24-hour glucose profile was monitored at day 14-15 of the study.
The insulin sensitivity index was calculated at the termination of the study according to the method described by Matsuda and DeFronzo (Diabetes Care. 1999 Sep.;22(9):1462-70).

The target of data set [6] is T2, serum DPP-IV (Rattus norvegicus, UniProt P14740).
T2 construct: from tissue; host or cells: serum of Lewis rats dosed with the compounds
T2 sequence (P14740 37-767 limits assumed): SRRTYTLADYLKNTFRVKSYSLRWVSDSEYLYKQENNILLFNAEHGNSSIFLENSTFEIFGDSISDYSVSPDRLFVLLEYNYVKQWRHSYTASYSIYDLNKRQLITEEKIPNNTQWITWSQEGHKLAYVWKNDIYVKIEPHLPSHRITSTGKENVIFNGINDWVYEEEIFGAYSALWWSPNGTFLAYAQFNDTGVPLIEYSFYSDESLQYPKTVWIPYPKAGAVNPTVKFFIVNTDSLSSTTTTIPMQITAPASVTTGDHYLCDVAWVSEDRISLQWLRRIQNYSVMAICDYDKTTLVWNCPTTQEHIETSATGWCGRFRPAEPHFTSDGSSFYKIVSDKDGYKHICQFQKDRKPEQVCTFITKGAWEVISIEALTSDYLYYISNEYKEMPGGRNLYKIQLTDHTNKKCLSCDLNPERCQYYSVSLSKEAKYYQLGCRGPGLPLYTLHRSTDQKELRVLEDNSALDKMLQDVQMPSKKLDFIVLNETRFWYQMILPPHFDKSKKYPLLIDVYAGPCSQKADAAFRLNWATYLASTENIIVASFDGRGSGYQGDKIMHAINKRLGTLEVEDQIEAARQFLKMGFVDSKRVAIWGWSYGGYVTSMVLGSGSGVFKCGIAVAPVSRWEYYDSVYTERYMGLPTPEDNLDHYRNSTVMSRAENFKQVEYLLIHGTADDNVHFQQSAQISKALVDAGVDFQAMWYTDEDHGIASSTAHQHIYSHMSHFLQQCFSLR
Briefly: Serum DPP-IV inhibition in Lewis rats. Conditions: single oral administration, 2 hours. The class given is in vivo. Here is the method:
Assay of serum DPP-IV inhibition in vivo. […] DPP-IV activity was determined by reaction of 10 μl serum with 90 μl of 0.11 mM Ala-Pro-AFC (Enzyme System Products, Dublin, Calif.) in 50 mM HEPES/Na buffer pH 7.6, 140 mM NaCl.

Data set [7] has as its target DPP-IV (Homo sapiens, UniProt P27487). Particulars: in vivo; cited from earlier work.

Sequence of DPP-IV (P27487 whole entry, species assumed): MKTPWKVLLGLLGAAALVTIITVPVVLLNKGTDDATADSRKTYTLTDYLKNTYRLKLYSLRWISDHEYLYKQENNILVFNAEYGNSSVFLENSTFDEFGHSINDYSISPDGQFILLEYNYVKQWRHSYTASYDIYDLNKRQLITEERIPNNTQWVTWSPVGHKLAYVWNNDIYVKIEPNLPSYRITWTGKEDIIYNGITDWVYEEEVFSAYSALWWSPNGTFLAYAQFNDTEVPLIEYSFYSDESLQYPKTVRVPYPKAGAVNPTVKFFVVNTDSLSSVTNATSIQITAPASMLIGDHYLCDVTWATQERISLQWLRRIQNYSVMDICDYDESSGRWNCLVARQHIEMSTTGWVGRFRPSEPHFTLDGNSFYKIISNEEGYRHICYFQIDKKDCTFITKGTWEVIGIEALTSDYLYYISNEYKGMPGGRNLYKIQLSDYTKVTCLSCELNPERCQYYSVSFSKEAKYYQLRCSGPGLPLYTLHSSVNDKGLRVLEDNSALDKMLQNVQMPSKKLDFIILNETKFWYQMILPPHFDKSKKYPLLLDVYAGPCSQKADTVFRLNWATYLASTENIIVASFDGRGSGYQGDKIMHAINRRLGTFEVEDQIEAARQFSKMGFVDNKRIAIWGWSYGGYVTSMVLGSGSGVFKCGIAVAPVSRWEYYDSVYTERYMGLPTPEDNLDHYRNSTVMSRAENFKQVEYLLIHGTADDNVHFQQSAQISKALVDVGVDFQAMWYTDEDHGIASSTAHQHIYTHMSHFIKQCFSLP

As to `C[C@H](N)C(=O)N1CCC[C@H]1B(O)O` [Ala-boroPro], the “MTD (maximum tolerated dose)” value in data set [1] is recorded as “≧2,000 μg/kg”.
As for `NC(N)=NCCC[C@H](N)C(=O)N1CCC[C@H]1B(O)O` [Arg-boroPro], the “persistence of DPP-IV inhibition after preincubation” value (“persistence of DPP-IV inhibition” below) in data set [2] was “more rapidly reversible”. Moreover, in data set [1], the “MTD (maximum tolerated dose)” value is “≧2,000 μg/kg”.
Consider `NC(=O)CC[C@H](N)C(=O)N1CCC[C@H]1B(O)O` [Gln-boroPro], for which the “MTD (maximum tolerated dose)” value in data set [1] is on record as “≧800 μg/kg”.
Turning to `CC[C@H](C)[C@H](N)C(=O)N1CCC[C@H]1B(O)O` [Ile-boroPro], the “persistence of DPP-IV inhibition” value in data set [2] is “sustained DPP-IV inhibition”. In data set [3], the “supernatant G-CSF level (stimulation index)” value is “stimulate increased levels of G-CSF”. Besides, in data set [4], the “serum levels of KC/CXCL1” value was “stimulate increased serum levels of KC/CXCL1 in a dose-dependent manner”. Moreover, the “MTD (maximum tolerated dose)” value in data set [1] is 120 µg/kg.
For `CC(C)C[C@H](N)C(=O)N1CCC[C@H]1B(O)O` [Leu-boroPro] the same measures were “more rapidly reversible”, “stimulate increased levels of G-CSF”, “stimulate increased serum levels of KC/CXCL1 in a dose-dependent manner” and 200 µg/kg.
`NCCCC[C@H](N)C(=O)N1CCC[C@H]1B(O)O` [Lys-boroPro]: in data set [2], the “persistence of DPP-IV inhibition” value is “more rapidly reversible”. Also, the “MTD (maximum tolerated dose)” value in data set [1] is “≧2,000 μg/kg”.
For `CSCC[C@H](N)C(=O)N1CCC[C@H]1B(O)O` [Met-boroPro], the “MTD (maximum tolerated dose)” value in data set [1] is 160 µg/kg.
Consider `CN(C)C(=N)N=C(N)N` [Metformin, reference compound], for which the “AUC of 24 hour glucose profile” value in data set [5] is “achieve significance”.
As to `N[C@@H](Cc1ccccc1)C(=O)N1CCC[C@H]1B(O)O` [Phe-boroPro], the “persistence of DPP-IV inhibition” value in data set [2] was “more rapidly reversible”.
Turning to `O=C(C1CCCN1)N1CCCC1B(O)O` (stereo not shown) [Pro-boroPro], the “persistence of DPP-IV inhibition” value in data set [2] was “more rapidly reversible”. The “MTD (maximum tolerated dose)” value in data set [1] is “≧2,000 μg/kg”.
In the case of `N[C@@H](CO)C(=O)N1CCC[C@H]1B(O)O` [Ser-boroPro], the “MTD (maximum tolerated dose)” value in data set [1] is 4,000 μg/kg.
Consider `C[C@@H](O)[C@H](N)C(=O)N1CCC[C@H]1B(O)O` [Thr-boroPro], for which the “MTD (maximum tolerated dose)” value in data set [1] came to 800 µg/kg.
On to `CC(C)[C@H](N)C(=O)N1CCC[C@H]1B(O)O` [Val-boroPro], for which the “serum levels of KC/CXCL1” value in data set [4] is given as “stimulate increased serum levels of KC/CXCL1 in a dose-dependent manner”. The “MTD (maximum tolerated dose)” value in data set [1] amounted to 20 µg/kg. Also, in data set [6], the “ID50 (dose causing 50% reduction in serum DPP-IV activity)” value turned out to be 0.009 mg/kg.
For the molecule gastric inhibitory protein [GIP], the “t1/2 of N-terminal degradation” value in data set [7] is approximately 1 min.
